In US12077503B2, “Substituted cyclic amides and their use as herbicides” (FMC CORPORATION, priority 2015, dated 2024):

How the values were obtained:
Type in all cases: in vivo
[1] = test system: giant foxtail (Setaria faberii); experiment: Test A postemergence; conditions: postemergence, 0 to 100 scale (0 no effect, 100 complete control)
Procedure, shortened: (§1)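 Greenhouse, ~10 d after spray; visual injury vs untreated controls, 0 = no effect, 100 = complete control. Preemergence: directed soil spray over planted seeds. Postemergence: plants 2–10 cm, 1–2 leaf stage. Loam/sand blend. Compound in non-phytotoxic solvent with surfactant.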

[2] = test system: corn (Zea mays); experiment: Test A postemergence; conditions: postemergence, 0 to 100 scale (0 no effect, 100 complete control)
Procedure, shortened: as §1

[3] = test system: blackgrass (Alopecurus myosuroides); experiment: Test A postemergence; conditions: postemergence, 0 to 100 scale (0 no effect, 100 complete control)
Procedure, shortened: as §1

[4] = test system: Galium (catchweed bedstraw, Galium aparine); experiment: Test A postemergence; conditions: postemergence, 0 to 100 scale (0 no effect, 100 complete control)
Procedure, shortened: as §1

[5] = test system: pigweed (Amaranthus retroflexus); experiment: Test A postemergence; conditions: postemergence, 0 to 100 scale (0 no effect, 100 complete control)
Procedure, shortened: as §1

[6] = test system: ragweed (common ragweed, Ambrosia elatior); experiment: Test A postemergence; conditions: postemergence, 0 to 100 scale (0 no effect, 100 complete control)
Procedure, shortened: as §1

[7] = test system: wheat (Triticum aestivum); experiment: Test A postemergence; conditions: postemergence, 0 to 100 scale (0 no effect, 100 complete control)
Procedure, shortened: as §1

[8] = test system: Kochia (Kochia scoparia); experiment: Test A postemergence; conditions: postemergence, 0 to 100 scale (0 no effect, 100 complete control)
Procedure, shortened: as §1

[9] = test system: ryegrass, Italian (Italian ryegrass, Lolium multiflorum); experiment: Test A postemergence; conditions: postemergence, 0 to 100 scale (0 no effect, 100 complete control)
Procedure, shortened: as §1

[10] = test system: barnyardgrass (Echinochloa crus-galli); experiment: Test A postemergence; conditions: postemergence, 0 to 100 scale (0 no effect, 100 complete control)
Procedure, shortened: as §1

[11] = test system: giant foxtail (Setaria faberii); experiment: Test A preemergence
Procedure, shortened: as §1

[12] = test system: pigweed (Amaranthus retroflexus); experiment: Test A preemergence
[13] = test system: ragweed (common ragweed, Ambrosia elatior); experiment: Test A preemergence
Procedure, shortened: as §1

[14] = test system: Kochia (Kochia scoparia); experiment: Test A preemergence
Procedure, shortened: as §1

[15] = test system: ryegrass, Italian (Italian ryegrass, Lolium multiflorum); experiment: Test A preemergence
Procedure, shortened: as §1

[16] = test system: barnyardgrass (Echinochloa crus-galli); experiment: Test A preemergence
Procedure, shortened: as §1

[17] = test system: ducksalad (Heteranthera limosa); experiment: Test B flooded paddy test; conditions: Flood, 250 g ai/ha; 0 to 100 scale where 0 is no effect and 100 is complete control; 13 to 15 d
Procedure, shortened: (§2)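 Greenhouse paddy pots with 2-leaf stage plants received compound by direct addition to floodwater 3 cm deep, kept at that level. Scored visually at 13–15 d versus controls (0 no effect; 100 complete control).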

[18] = test system: sedge, umbrella (small-flower umbrella sedge, Cyperus difformis); experiment: Test B flooded paddy test; conditions: Flood, 250 g ai/ha; 0 to 100 scale where 0 is no effect and 100 is complete control; 13 to 15 d
Procedure, shortened: as §2

[19] = test system: rice (Oryra sativa); experiment: Test B flooded paddy test; conditions: Flood, 250 g ai/ha; 0 to 100 scale where 0 is no effect and 100 is complete control; 13 to 15 d
Procedure, shortened: as §2

[20] = test system: barnyardgrass (Echinochloa crus-galli); experiment: Test B flooded paddy test; conditions: Flood, 250 g ai/ha; 0 to 100 scale where 0 is no effect and 100 is complete control; 13 to 15 d
Procedure, shortened: as §2

[21] = 125 g ai/ha, visual rating after approx. 10 d
[22] = 500 g ai/ha, visual injury, approx. 10 d
[23] = 125 g ai/ha, Preemergence, visual injury after approximately 10 d, 0 to 100 scale where 0 is no effect and 100 is complete control
[24] = 500 g ai/ha, preemergence, 0 to 100 scale, 0 = no effect, 100 = complete control

With Cc1ccc(C2CNC(=O)C2C(=O)Nc2ccc(F)cc2F)cc1C(F)(F)F (racemic) [Compound 680] the “Plant response rating, Foxtail, Giant” value [1, 21] was 0, the “Plant response rating, Foxtail, Giant” value [1, 22] was 30 and the “Plant response rating, Corn” value [2, 21] was 20. The “Plant response rating, Corn” value [2, 22] was 20, the “Plant response rating, Blackgrass” value [3, 21] was 20 and the “Plant response rating, Blackgrass” value [3, 22] was 20. The “Plant response rating, Galium” value [4, 21] was 0, the “Plant response rating, Galium” value [4, 22] was 20 and the “Plant response rating, Pigweed” value [5, 21] was 0. The “Plant response rating, Pigweed” value [5, 22] was 0, the “Plant response rating, Ragweed” value [6, 21] was 0 and the “Plant response rating, Ragweed” value [6, 22] was 0. For the same compound, the “Plant response rating, Wheat” value [7, 21] was 0, the “Plant response rating, Wheat” value [7, 22] was 0 and the “Plant response rating, Kochia” value [8, 21] was 0. The “Plant response rating, Kochia” value [8, 22] was 0, the “Plant response rating, Ryegrass, Italian” value [9, 21] was 0 and the “Plant response rating, Ryegrass, Italian” value [9, 22] was 0. The “Plant response rating, Barnyardgrass” value [10, 21] was 30, the “Plant response rating, Barnyardgrass” value [10, 22] was 60 and the “Plant response rating, Foxtail, Giant” value [11, 23] was 60. For the same compound, the “Plant response rating, Foxtail, Giant” value [11, 24] was 90, the “Plant response rating, Pigweed” value [12, 23] was 0 and the “Plant response rating, Pigweed” value [12, 24] was 0. The “Plant response rating, Ragweed” value [13, 23] was 0, the “Plant response rating, Ragweed” value [13, 24] was 0 and the “Plant response rating, Kochia” value [14, 23] was 0. The “Plant response rating, Kochia” value [14, 24] was 20, the “Plant response rating, Ryegrass, Italian” value [15, 23] was 0 and the “Plant response rating, Ryegrass, Italian” value [15, 24] was 20. The “Plant response rating, Barnyardgrass” value [16, 23] was 30, the “Plant response rating, Barnyardgrass” value [16, 24] was 90 and the “Plant response rating, Ducksalad” value [17] was 30. The “Plant response rating, Sedge, Umbrella” value [18] was 0, the “Plant response rating, Rice” value [19] was 15 and the “Plant response rating, Barnyardgrass” value [20] was 20.
In the case of Cc1ccc(C2CNC(=O)C2C(=O)Nc2ccccc2F)cc1C(F)(F)F (racemic) [Compound 654], the “Plant response rating, Foxtail, Giant” value [1, 21] was 70, the “Plant response rating, Foxtail, Giant” value [1, 22] was 90 and the “Plant response rating, Corn” value [2, 21] was 20. For the same compound, the “Plant response rating, Corn” value [2, 22] was 70, the “Plant response rating, Blackgrass” value [3, 21] was 30 and the “Plant response rating, Blackgrass” value [3, 22] was 50. The “Plant response rating, Galium” value [4, 21] was 40, the “Plant response rating, Galium” value [4, 22] was 60 and the “Plant response rating, Pigweed” value [5, 21] was 0. For the same compound, the “Plant response rating, Pigweed” value [5, 22] was 20, the “Plant response rating, Ragweed” value [6, 21] was 0 and the “Plant response rating, Ragweed” value [6, 22] was 20. The “Plant response rating, Wheat” value [7, 21] was 0, the “Plant response rating, Wheat” value [7, 22] was 40 and the “Plant response rating, Kochia” value [8, 21] was 20. For the same compound, the “Plant response rating, Kochia” value [8, 22] was 50, the “Plant response rating, Ryegrass, Italian” value [9, 21] was 30 and the “Plant response rating, Ryegrass, Italian” value [9, 22] was 60. For the same compound, the “Plant response rating, Barnyardgrass” value [10, 21] was 90, the “Plant response rating, Barnyardgrass” value [10, 22] was 90 and the “Plant response rating, Foxtail, Giant” value [11, 23] was 90. The “Plant response rating, Foxtail, Giant” value [11, 24] was 90, the “Plant response rating, Pigweed” value [12, 23] was 40 and the “Plant response rating, Pigweed” value [12, 24] was 70. For the same compound, the “Plant response rating, Ragweed” value [13, 23] was 0, the “Plant response rating, Ragweed” value [13, 24] was 30 and the “Plant response rating, Kochia” value [14, 23] was 0. For the same compound, the “Plant response rating, Kochia” value [14, 24] was 40, the “Plant response rating, Ryegrass, Italian” value [15, 23] was 40 and the “Plant response rating, Ryegrass, Italian” value [15, 24] was 80. The “Plant response rating, Barnyardgrass” value [16, 23] was 90, the “Plant response rating, Barnyardgrass” value [16, 24] was 90 and the “Plant response rating, Ducksalad” value [17] was 90. For the same compound, the “Plant response rating, Sedge, Umbrella” value [18] was 0, the “Plant response rating, Rice” value [19] was 0 and the “Plant response rating, Barnyardgrass” value [20] was 35.
